From ChEMBL document CHEMBL1158153, “Novel H3 receptor antagonists with improved pharmacokinetic profiles” (Bioorg Med Chem Lett, 2008)

Legend:
[1] = molecular target: Histamine H3 receptor (Rattus norvegicus, UniProt Q9QYN8); experiment: Displacement of N-[3H]methylhistamine from histamine H3 receptor in rat cortex membrane; type: cell membranes
[2] = molecular target: T1, Histamine H3 receptor (Homo sapiens, UniProt Q9Y5N1); experiment: Antagonist activity at human histamine H3 receptor expressed in CHOK1 cells by [3H]R(-)-alpha-methylhistamine displacement assay; type: cell-based, CHO-K1
[3] = molecular target: T1, Histamine H3 receptor; experiment: Inverse agonist activity at human H3 receptor expressed in CHOK1 cells by GTPgammaS binding assay; type: functional, cell-based, CHO-K1
[4] = Tmax in rat at 10 mg/kg, po; type: ADME, organism-based; design: dose 10 mg/kg, route oral; settings: in vivo
[5] = Half life in rat at 10 mg/kg, po; type: ADME, organism-based; design: dose 10 mg/kg, route oral; settings: in vivo
[6] = Bioavailability in rat at 10 mg/kg, po; type: ADME, organism-based; settings: in vivo
[7] = organism: Rattus norvegicus; experiment: Inhibition of R(-)-alpha-methylhistamine-induced drinking response in rat dipsogenia model after 0.5 hrs; type: functional, organism-based

Sequence of Histamine H3 receptor (Rattus norvegicus, UniProt Q9QYN8) (Q9QYN8 whole entry): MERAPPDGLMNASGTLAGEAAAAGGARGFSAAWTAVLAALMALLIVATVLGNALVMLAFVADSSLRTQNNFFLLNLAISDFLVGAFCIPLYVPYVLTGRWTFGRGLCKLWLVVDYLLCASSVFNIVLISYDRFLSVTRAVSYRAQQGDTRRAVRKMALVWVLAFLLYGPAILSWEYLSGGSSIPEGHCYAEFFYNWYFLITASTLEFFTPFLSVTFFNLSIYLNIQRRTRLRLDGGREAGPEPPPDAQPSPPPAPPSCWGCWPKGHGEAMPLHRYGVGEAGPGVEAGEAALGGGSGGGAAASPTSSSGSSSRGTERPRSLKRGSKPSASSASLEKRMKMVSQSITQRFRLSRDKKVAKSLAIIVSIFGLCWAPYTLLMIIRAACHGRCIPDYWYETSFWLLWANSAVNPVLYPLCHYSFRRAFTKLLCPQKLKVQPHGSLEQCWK
T1 sequence (Q9Y5N1 whole entry): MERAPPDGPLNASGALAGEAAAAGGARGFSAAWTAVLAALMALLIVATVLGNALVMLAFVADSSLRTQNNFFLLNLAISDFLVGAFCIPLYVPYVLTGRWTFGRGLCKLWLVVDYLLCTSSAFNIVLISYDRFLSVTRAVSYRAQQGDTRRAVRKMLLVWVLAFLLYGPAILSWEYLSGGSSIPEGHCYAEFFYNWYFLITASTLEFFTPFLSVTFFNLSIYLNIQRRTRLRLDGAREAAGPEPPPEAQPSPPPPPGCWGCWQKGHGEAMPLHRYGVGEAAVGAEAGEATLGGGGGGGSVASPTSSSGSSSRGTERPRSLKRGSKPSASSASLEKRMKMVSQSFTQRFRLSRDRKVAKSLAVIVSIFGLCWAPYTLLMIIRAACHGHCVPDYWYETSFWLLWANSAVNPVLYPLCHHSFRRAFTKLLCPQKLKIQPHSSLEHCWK

SMILES | Ki [1] [nM] | further results
C[C@@H]1CCCN1CCc1ccc(C2=CC[C@H]3CN(C(=O)C4CCCC4)C[C@@H]23)cc1 | 0.4 | –
C1=C(c2ccc(CCN3CCCC3)cc2)[C@@H]2CN(CC3CC3)C[C@@H]2C1 | – | Ki [2]: 0.9 nM; Ki [3]: 1 nM; Tmax [4]: 6 h; half-life [5]: 6 h
C[C@@H]1CCCN1CCc1ccc(C2=CC[C@H]3CN(C(=O)Cc4ccccc4)C[C@@H]23)cc1 | 0.3 | –
O=C(NC1CCCC1)N1C[C@@H]2CC=C(c3ccc(CCN4CCCC4)cc3)[C@@H]2C1 | 16 | –
C[C@@H]1CCCN1CCc1ccc(C2=CC[C@H]3CN(C(=O)C4CCOCC4)C[C@@H]23)cc1 | 0.7 | Ki [2]: 2 nM; Ki [3]: 4 nM; Tmax [4]: 0.3 h; half-life [5]: 2.5 h; bioavailability [6]: 66%; Activity [7]: Dose-dependent effect
CN(C)C(=O)N1C[C@@H]2CC=C(c3ccc(CCN4CCCC4)cc3)[C@@H]2C1 | 13 | –
O=S(=O)(c1ccccc1)N1C[C@@H]2CC=C(c3ccc(CCN4CCCC4)cc3)[C@@H]2C1 | 17 | –
CC(C)C(=O)N1C[C@@H]2CC=C(c3ccc(CCN4CCC[C@H]4C)cc3)[C@@H]2C1 | 0.4 | –
O=C(N1CCOCC1)N1C[C@@H]2CC=C(c3ccc(CCN4CCCC4)cc3)[C@@H]2C1 | 12 | –
CC(C)NC(=O)N1C[C@@H]2CC=C(c3ccc(CCN4CCCC4)cc3)[C@@H]2C1 | 20 | Tmax [4]: 0.3 h; half-life [5]: 7.3 h; bioavailability [6]: 22%
CC(C)C(=O)N1C[C@@H]2CC=C(c3ccc(CCN4CCCC4)cc3)[C@@H]2C1 | 5 | –
O=C(CO)N1C[C@@H]2CC=C(c3ccc(CCN4CCCC4)cc3)[C@@H]2C1 | 6 | Tmax [4]: 0.6 h; half-life [5]: 1.8 h; bioavailability [6]: 39%
O=C(c1cccnc1)N1C[C@@H]2CC=C(c3ccc(CCN4CCCC4)cc3)[C@@H]2C1 | 6 | –
O=C(C1CCOC1)N1C[C@@H]2CC=C(c3ccc(CCN4CCCC4)cc3)[C@@H]2C1 (stereo not given in full) | 4 | –
O=C(Cc1ccccc1)N1C[C@@H]2CC=C(c3ccc(CCN4CCCC4)cc3)[C@@H]2C1 | 7 | –
C[C@@H]1CCCN1CCc1ccc(C2=CC[C@H]3CN(C(=O)c4ccccc4)C[C@@H]23)cc1 | 3 | –
CS(=O)(=O)N1C[C@@H]2CC=C(c3ccc(CCN4CCCC4)cc3)[C@@H]2C1 | 27 | –
O=C(C1CCCC1)N1C[C@@H]2CC=C(c3ccc(CCN4CCCC4)cc3)[C@@H]2C1 | 3 | –
CC(C)S(=O)(=O)N1C[C@@H]2CC=C(c3ccc(CCN4CCCC4)cc3)[C@@H]2C1 | 12 | Tmax [4]: 0.2 h; half-life [5]: 5 h; bioavailability [6]: 3%
O=S(=O)(Cc1ccccc1)N1C[C@@H]2CC=C(c3ccc(CCN4CCCC4)cc3)[C@@H]2C1 | 12 | –
C[C@@H]1CCCN1CCc1ccc(C2=CC[C@H]3CN(C(=O)c4cccnc4)C[C@@H]23)cc1 | 1 | –
O=C(c1ccccc1)N1C[C@@H]2CC=C(c3ccc(CCN4CCCC4)cc3)[C@@H]2C1 | 21 | –
